Converted amounts (≈) assume the structure as drawn. The source made the active and inactive calls. No cut-off for these calls is given here.
What was measured:
[1] = Lipophilicity, log D of the compound at pH 7.4; settings: buffer
[2] = Intrinsic clearance in human liver microsomes at 1 uM after 45 mins in presence of NADPH by LC-MS/MS analysis; format: ADME; settings: read-out: CLH
[3] = Cytotoxicity against human KARPAS422 cells assessed as inhibition of cell proliferation after 72 hrs; format: functional, cell-based; settings: KARPAS-422, 72 h
[4] = target: T1, Histone-lysine N-methyltransferase EZH2 (Homo sapiens, UniProt O75530+Q09028+Q15022+Q15910); assay: Inhibition of wild-type EZH2 (unknown origin) expressed in baculovirus infected SF9 cells co-expressing SUZ12/EED/RbAp48 complex using HeLa cells derived oligonucleosomes as substrate after 60 mins in presence of [3H] SAM by scintillation counting
[5] = target: Histone-lysine N-methyltransferase EZH2 (Homo sapiens, UniProt O75530+Q09028+Q15022+Q15910, Y641N); assay: Inhibition of EZH2 Y641N mutant (unknown origin) expressed in baculovirus infected SF9 cells co-expressing SUZ12/EED/RbAp48 complex using HeLa cells derived oligonucleosomes as substrate after 60 mins in presence of [3H] SAM by scintillation counting
[6] = target: Histone-lysine N-methyltransferase EZH2 (Homo sapiens, UniProt Q15910); assay: Inhibition of EZH2 in human KARPAS422 cells assessed as reduction in H3K27Me3 levels after 72 hrs by ELISA; format: cell-based
[7] = target: T1, Histone-lysine N-methyltransferase EZH2; assay: Binding affinity to EZH2 (unknown origin) expressed in baculovirus infected SF9 cells co-expressing SUZ12/EED/RbAp48 complex by ITC analysis
[8] = Permeability in RRCK cells; format: ADME, cell-based, Canis lupus familiaris, MDCKII-LE; settings: dog, MDCK; read-out: permeability
[9] = Kinetic solubility of the compound; format: physicochemical; settings: read-out: Kinetic_solubility
MDR1 [10] = assay: Permeability across apical to basolateral side in MDCK cells expressing MDR1; format: ADME, cell-based, Canis lupus familiaris; settings: dog, read-out: permeability
[11] = Intrinsic clearance in mouse liver microsomes at 1 uM after 45 mins in presence of NADPH by LC-MS/MS analysis; format: ADME; settings: read-out: CLH
MDR1 [12] = assay: in vitro; settings: dog, MDCK-MDR1
Description: Efflux ratio of permeability from basolateral to apical side over apical to basolateral side in MDCK cells expressing MDR1

Mus musculus [13] = assay: In vivo inhibition of EZH2 in Scid beige mouse xenografted with human KARPAS422 cells assessed as upregulation of TNFRSF21 expression at 300 mg/kg, bid for 20 days measured 1 to 4 hrs post last dose on day 20 relative to control; format: functional
[14] = Time duration during which free plasma concentration stays above in vitro cell IC90 in mouse at 300 mg/kg; format: ADME, organism-based; settings: in vivo
KARPAS-422 [15] = assay: Antitumor activity against human KARPAS422 cells xenografted in Scid beige mouse assessed as tumor stasis at 200 to 300 mg/kg, bid for 20 days measured on day 20; format: functional, organism-based
KARPAS-422 [16] = assay: Antitumor activity against human KARPAS422 cells xenografted in Scid beige mouse assessed as tumor growth inhibition at 200 to 300 mg/kg, bid for 20 days measured for 3 weeks post last dose; format: functional, organism-based
Mus musculus [17] = assay: In vivo inhibition of EZH2 in Scid beige mouse xenografted with human KARPAS422 cells assessed as upregulation of PRDM1 expression at 200 mg/kg, bid for 20 days measured 1 to 4 hrs post last dose on day 20 relative to control; format: functional
Mus musculus [18] = assay: In vivo inhibition of EZH2 in Scid beige mouse xenografted with human KARPAS422 cells assessed as upregulation of TNFRSF21 expression at 200 mg/kg, bid for 20 days measured 1 to 4 hrs post last dose on day 20 relative to control; format: functional
[19] = Protein binding in mouse plasma at 30 to 300 mg/kg; format: ADME, organism-based; settings: read-out: PPB (converted)
Mus musculus [20] = assay: In vivo inhibition of EZH2 in human KARPAS422 cells xenografted in Scid beige mouse assessed as reduction in H3K27Me3 levels at 200 mg/kg, bid for 20 days measured 1 to 4 hrs post last dose on day 20 by ELISA; format: functional; settings: KARPAS-422
Mus musculus [21] = assay: In vivo inhibition of EZH2 in Scid beige mouse xenografted with human KARPAS422 cells assessed as upregulation of PRDM1 expression at 300 mg/kg, bid for 20 days measured 1 to 4 hrs post last dose on day 20 relative to control; format: functional
[22] = Time duration during which free plasma concentration stays at or below in vitro cell IC50 in mouse at 30 to 100 mg/kg; format: ADME, organism-based; settings: in vivo
Mus musculus [23] = assay: Toxicity in Scid beige mouse xenografted with human KARPAS422 cells assessed as body weight loss at 200 to 300 mg/kg, bid for 20 days measured during compound dosing; format: organism-based; settings: in vivo, 480 h
Mus musculus [24] = assay: In vivo inhibition of EZH2 in Scid beige mouse xenografted with human KARPAS422 cells assessed as reduction in H3K27Me3 levels at 300 mg/kg, bid for 20 days measured 1 to 4 hrs post last dose on day 20 by ELISA; format: functional; settings: KARPAS-422
KARPAS-422 [25] = assay: Antitumor activity against human KARPAS422 cells xenografted in Scid beige mouse assessed as tumor regression at 200 to 300 mg/kg, bid for 20 days measured on day 20; format: functional, organism-based

Histone-lysine N-methyltransferase EZH2 (Homo sapiens, UniProt O75530+Q09028+Q15022+Q15910, Y641N), sequence (Q15910 whole entry Y641N, one chain of several): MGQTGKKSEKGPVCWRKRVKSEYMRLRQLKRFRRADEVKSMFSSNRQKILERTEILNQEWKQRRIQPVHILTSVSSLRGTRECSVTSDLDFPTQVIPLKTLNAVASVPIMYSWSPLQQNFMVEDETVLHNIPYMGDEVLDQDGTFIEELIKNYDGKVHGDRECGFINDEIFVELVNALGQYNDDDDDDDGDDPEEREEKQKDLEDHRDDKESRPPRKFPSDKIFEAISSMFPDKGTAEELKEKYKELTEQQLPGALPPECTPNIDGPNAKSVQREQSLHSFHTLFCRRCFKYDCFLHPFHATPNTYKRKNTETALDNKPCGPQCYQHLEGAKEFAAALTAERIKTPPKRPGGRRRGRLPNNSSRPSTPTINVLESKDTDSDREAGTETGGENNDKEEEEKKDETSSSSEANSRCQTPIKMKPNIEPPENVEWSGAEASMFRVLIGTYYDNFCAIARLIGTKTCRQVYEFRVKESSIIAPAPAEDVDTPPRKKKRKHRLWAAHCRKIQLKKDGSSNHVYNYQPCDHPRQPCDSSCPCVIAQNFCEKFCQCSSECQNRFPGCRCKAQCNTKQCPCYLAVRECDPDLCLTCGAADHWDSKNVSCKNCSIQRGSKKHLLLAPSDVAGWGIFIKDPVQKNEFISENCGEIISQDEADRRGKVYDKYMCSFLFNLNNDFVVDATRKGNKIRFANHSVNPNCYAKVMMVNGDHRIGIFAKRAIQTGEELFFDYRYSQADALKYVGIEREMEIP
T1 sequence (Q15910 whole entry, one chain of several): as the sequence (Q15910 whole entry Y641N, one chain of several) above, with N641Y counted along it
Histone-lysine N-methyltransferase EZH2 (Homo sapiens, UniProt Q15910), sequence (Q15910 whole entry): as the sequence (Q15910 whole entry Y641N, one chain of several) above, with N641Y counted along it

Row | SMILES | logD [1] | microsomal CLint at 1 µM [2] | IC50 [4] | IC50 [3] | IC50 [6] | other results
1 | Cc1cc(C)c(CN2CCc3c(Cl)cc(-c4c(C)nn(C)c4C)c(Cl)c3C2=O)c(=O)[nH]1 | 3.4 |  | 1500 nM | 12800 nM | 15300 nM | IC50 [5]: 6000 nM
2 | Cc1cc(C)c(CN2CCc3ccc(OC(C)C)c(C)c3C2=O)c(=O)[nH]1 |  | 102 µL/min/mg | 160 nM |  |  | Kd [7]: 37.4 nM
3 | Cc1cc(C)c(CN2CCc3c(F)cc(O[C@@H]4CCOC4)c(Cl)c3C2=O)c(=O)[nH]1 | 2.1 |  | 56 nM | 1030 nM | 994 nM | IC50 [5]: 260 nM
4 | CCOc1ccc2c(c1Cl)C(=O)N(Cc1c(C)cc(C)[nH]c1=O)CC2 | 2.2 | 37 µL/min/mg |  |  |  | 
5 | Cc1cc(C)c(CN2CCc3ccc(-c4c(C)noc4C)c(Cl)c3C2=O)c(=O)[nH]1 | 2.6 |  | 3.2 nM | 121 nM | 105 nM | Ki [4]: 2 nM; IC50 [5]: 8.8 nM; Ki [5]: 6.3 nM
6 | Cc1cc(C)c(CN2CCc3ccc(O[C@@H]4CCOC4)c(Cl)c3C2=O)c(=O)[nH]1 | 1.5 | 21 µL/min/mg |  | 512 nM | 796 nM | Papp [8]: 12.3 ×10⁻⁶ cm/s; solubility kinetic [9]: 510 µM (≈ 205 µg/mL); Papp A→B (MDR1 [10]): 1.7 ×10⁻⁶ cm/s; microsomal CLint at 1 µM [11]: 31 µL/min/mg
7 | COc1ccc2c(c1Cl)C(=O)N(Cc1c(C)cc(C)[nH]c1=O)CCO2 | 1.3 | 40 µL/min/mg | 650 nM |  |  | 
8 | COc1cccc(C(=O)NCc2c(C)cc(C)[nH]c2=O)c1 | 1.7 |  | > 150000 nM |  |  | 
9 | Cc1cc(C)c(CN2CCc3c(Cl)cc(-c4c(C)n[nH]c4C)c(Cl)c3C2=O)c(=O)[nH]1 | 3.4 |  | 16 nM | 959 nM | 502 nM | IC50 [5]: 82 nM
10 | COc1cccc(C(=O)NCc2c(C)cc(C)[nH]c2=O)c1Cl | 1.2 | 8 µL/min/mg | 7200 nM |  |  | 
11 | Cc1cc(C)c(CN2CCc3c(C)cc(O[C@@H]4CCOC4)c(Cl)c3C2=O)c(=O)[nH]1 | 2.1 |  | 18 nM | 406 nM | 290 nM | IC50 [5]: 61 nM
12 | Cc1cc(C)c(CN2CCc3c(Cl)cc(-c4cn[nH]c4)c(Cl)c3C2=O)c(=O)[nH]1 | 3 |  | 51 nM | 1580 nM | 1730 nM | IC50 [5]: 270 to 271 nM
13 | Cc1cc(C)c(CN2CCc3c(Cl)cc(-c4cn[nH]c4C)c(Cl)c3C2=O)c(=O)[nH]1 | 3.1 |  | 24 nM | 1340 nM | 873 nM | IC50 [5]: 110 nM
14 | Cc1cc(C)c(CN2CCc3c(Cl)cc(O[C@@H]4CCOC4)c(Cl)c3C2=O)c(=O)[nH]1 | 2.5 | 21 µL/min/mg | 5.6 nM | 155 nM | 170 nM | Papp [8]: 14.7 ×10⁻⁶ cm/s; solubility kinetic [9]: 26 µM (≈ 11.4 µg/mL); efflux ratio (MDR1 [12]): 4.7; Papp A→B (MDR1 [10]): 4.5 ×10⁻⁶ cm/s; microsomal CLint at 1 µM [11]: 163 µL/min/mg; IC50 [5]: 18 nM

Continued, in another order:

Row | logD [1] | microsomal CLint at 1 µM [2] | IC50 [4] | SMILES | IC50 [3] | IC50 [6] | other results
15 | 2.5 | 19 µL/min/mg |  | Cc1cc(C)c(CN2CCc3ccc(OC(C)C)cc3C2=O)c(=O)[nH]1 |  |  | 
16 | 1.5 |  | 5700 nM | COc1cccc(C(=O)NCc2c(C)cc(C)[nH]c2=O)c1C |  |  | 
17 | 2.1 |  | 1400 nM | Cc1cc(C)c(CNC(=O)c2cccc(OC(C)C)c2C)c(=O)[nH]1 |  |  | Kd [7]: 252 nM
18 | 2.7 | 53 to 53.8 µL/min/mg |  | Cc1cc(C)c(CN2CCc3ccc(OC(C)C)c(Cl)c3C2=O)c(=O)[nH]1 | 1160 nM | 1190 nM | Papp [8]: 19.6 ×10⁻⁶ cm/s; solubility kinetic [9]: 19.6 µM (≈ 7.35 µg/mL); Papp A→B (MDR1 [10]): 7.9 ×10⁻⁶ cm/s
19 | 2 |  | 1300 nM | Cc1cc(C)c(CNC(=O)c2cccc(OC(C)C)c2Cl)c(=O)[nH]1 |  |  | 
20 | 1.4 |  | > 150000 nM | COc1cccc(C(=O)NCc2c(C)cc(C)[nH]c2=O)c1F |  |  | 
21 | 1.7 |  | > 140000 nM | COc1cccc(C(=O)NCc2c(C)cc(C)[nH]c2=O)c1OC |  |  | 
22 |  |  | > 200000 nM | Cc1cc(C)c(CNC(=O)c2ccccc2C)c(=O)[nH]1 |  |  | 
23 | 1.7 | 82 µL/min/mg | 150 nM | COc1ccc2c(c1Cl)C(=O)N(Cc1c(C)cc(C)[nH]c1=O)CCC2 |  |  | 
24 | 2.1 |  | 2000 nM | CCOc1cccc(C(=O)NCc2c(C)cc(C)[nH]c2=O)c1C |  |  | 
25 | 1.8 | 35 µL/min/mg |  | COc1ccc2c(c1Cl)C(=O)N(Cc1c(C)cc(C)[nH]c1=O)CC2 |  |  | 
26 | 3.1 | 107 µL/min/mg |  | Cc1cc(C)c(CN2CCc3c(Cl)cc(-c4c(C)noc4C)c(Cl)c3C2=O)c(=O)[nH]1 | 25 nM | 15 nM | fold change (FC) (Mus musculus [13]): 208.9; Papp [8]: 15.7 ×10⁻⁶ cm/s; Time [14]: <= 6 hr; Activity (KARPAS-422 [15]): Active; TGI (KARPAS-422 [16]): Active; fold change (FC) (Mus musculus [17]): 31.6; solubility kinetic [9]: 93.5 µM (≈ 41.7 µg/mL); fold change (FC) (Mus musculus [18]): 99.2; efflux ratio (MDR1 [12]): 4.6; Papp A→B (MDR1 [10]): 5.2 ×10⁻⁶ cm/s; fraction unbound [19]: 0.85; inhibition in vivo at 200 mg/kg (Mus musculus [20]): 55.5%; fold change (FC) (Mus musculus [21]): 57.9; microsomal CLint at 1 µM [11]: 531 µL/min/mg; Ki [4]: 0.7 nM; Time [22]: 6 h; Activity (Mus musculus [23]): < 10%; inhibition in vivo at 300 mg/kg (Mus musculus [24]): 66.4%; Activity (KARPAS-422 [25]): Active
27 | 1.9 |  | 44000 nM | COc1cccc(C(=O)NCc2c(C)cc(C)[nH]c2=O)c1O |  |  | 

From ChEMBL document CHEMBL3856228, “Design and Synthesis of Pyridone-Containing 3,4-Dihydroisoquinoline-1(2H)-ones as a Novel Class of Enhancer of Zeste Homolog 2 (EZH2) Inhibitors” (J Med Chem, 2016)
